In ChEMBL document CHEMBL1201862, “PubChem BioAssay data set” (2004):
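Cells were grown in 96-well plates and exposed to each compound for 48 hours at five concentrations; endpoints were interpolated linearly between bracketing concentrations, or set to the highest concentration if not reached. At the GI50, growth is halved.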 Calls of active or inactive are those of the source. No stated cut-off is given here; in the data, active = GI50 up to about 1.1 µM and inactive = higher.

Columns and labels:
Assay in all cases: NCI tumour cell line growth inhibition, 48 h
[1] = test system: NCI/ADR-RES
[2] = test system: SF-295
[3] = test system: SK-MEL-5
[4] = test system: HCC 2998
[5] = test system: NCI-H226
[6] = test system: NCI-H460
[7] = test system: HL-60
[8] = test system: UACC-257
[9] = test system: MDA-MB-435
[10] = test system: IGROV-1
[11] = test system: EKVX
[12] = test system: OVCAR-8
[13] = test system: DU-145
[14] = test system: LOX IMVI
[15] = test system: RXF 393
[16] = test system: COLO 205
[17] = test system: MDA-N
[18] = test system: CAKI-1
[19] = test system: BT-549
[20] = test system: HOP-62

SMILES	GI50 [1]	GI50 [2]	GI50 [3]	GI50 [4]	GI50 [5]	GI50 [6]	GI50 [7]	GI50 [8]	GI50 [9]	GI50 [10]	GI50 [11]	GI50 [12]	GI50 [13]	GI50 [14]	GI50 [15]	GI50 [16]	GI50 [17]	GI50 [18]	GI50 [19]	GI50 [20]
COc1ccc(OC)c2c1C(=O)C(Cl)=C(Cl)C2=O	2.58 µM (inactive)	20.1 µM (inactive)	5.64 µM (inactive)	17.3 µM (inactive)	18.7 µM (inactive)	19.8 µM (inactive)	44.5 µM (inactive)	2.19 µM (inactive)	2.31 µM (inactive)	15.5 µM (inactive)	8.3 µM (inactive)	6.46 µM (inactive)	19.6 µM (inactive)	2.07 µM (inactive)	1.85 µM (inactive)	1.56 µM (inactive)	2.08 µM (inactive)	2.56 µM (inactive)	–	–
COc1cc(O)ccc1C(=S)SC	38.9 µM (inactive)	60.3 µM (inactive)	26.5 µM (inactive)	–	16 µM (inactive)	77.6 µM (inactive)	23.6 µM (inactive)	51.5 µM (inactive)	68.5 µM (inactive)	42.6 µM (inactive)	11.4 µM (inactive)	58.7 µM (inactive)	> 100 µM (inactive)	–	89.3 µM (inactive)	> 100 µM (inactive)	–	56.8 µM (inactive)	> 100 µM (inactive)	> 100 µM (inactive)
Cc1ccc(/N=N/c2c(-c3ccccc3)nn(C(=O)CC(=O)Nc3ccc(Cl)cc3)c2-c2ccccc2)cc1	–	24.4 µM (inactive)	90.8 µM (inactive)	56.1 µM (inactive)	36.6 µM (inactive)	> 100 µM (inactive)	32.4 µM (inactive)	> 100 µM (inactive)	–	> 100 µM (inactive)	2.3 µM (inactive)	32.1 µM (inactive)	–	46.7 µM (inactive)	28.4 µM (inactive)	59.3 µM (inactive)	–	55 µM (inactive)	–	33.8 µM (inactive)
COc1ccccc1/C=C1\NC(=S)N(/C=C2\C(=O)Oc3ccccc3C2=O)C1=O	24.6 µM (inactive)	45.2 µM (inactive)	23.9 µM (inactive)	53.7 µM (inactive)	14.6 µM (inactive)	41.4 µM (inactive)	9.84 µM (inactive)	42.4 µM (inactive)	35.2 µM (inactive)	26.6 µM (inactive)	16.9 µM (inactive)	36.6 µM (inactive)	21.1 µM (inactive)	60.5 µM (inactive)	38.5 µM (inactive)	45.3 µM (inactive)	–	> 100 µM (inactive)	21.9 µM (inactive)	> 100 µM (inactive)
COc1ccc(C2c3c[nH]nc3CC3CCCCC32)cc1 (centres undefined)	–	–	15.7 µM (inactive)	20.3 µM (inactive)	17.4 µM (inactive)	16.5 µM (inactive)	23.4 µM (inactive)	22.4 µM (inactive)	19.4 µM (inactive)	12.7 µM (inactive)	–	17.3 µM (inactive)	13.4 µM (inactive)	17.9 µM (inactive)	–	–	14.4 µM (inactive)	14.2 µM (inactive)	16.6 µM (inactive)	21.3 µM (inactive)
CN(C)C(=O)C(F)(F)C(c1ccc(C(F)(F)F)cc1)C1C(=O)N(C)C(=O)N(C)C1=O (centres undefined)	> 100 µM (inactive)	> 100 µM (inactive)	> 100 µM (inactive)	> 100 µM (inactive)	> 100 µM (inactive)	> 100 µM (inactive)	–	> 100 µM (inactive)	> 100 µM (inactive)	–	> 100 µM (inactive)	–	> 100 µM (inactive)	> 100 µM (inactive)	78.3 µM (inactive)	> 100 µM (inactive)	–	> 100 µM (inactive)	> 100 µM (inactive)	> 100 µM (inactive)
CSc1nc(NC2OCC(OC(C)=O)C(OC(C)=O)C2OC(C)=O)c2c(n1)OCC2=O (centres undefined)	–	> 100 µM (inactive)	> 100 µM (inactive)	> 100 µM (inactive)	> 100 µM (inactive)	> 100 µM (inactive)	> 100 µM (inactive)	> 100 µM (inactive)	–	> 100 µM (inactive)	> 100 µM (inactive)	> 100 µM (inactive)	–	> 100 µM (inactive)	> 100 µM (inactive)	> 100 µM (inactive)	–	> 100 µM (inactive)	–	> 100 µM (inactive)
CN(C)c1nncc2[nH]nnc12	> 100 µM (inactive)	> 100 µM (inactive)	> 100 µM (inactive)	> 100 µM (inactive)	> 100 µM (inactive)	–	> 100 µM (inactive)	> 100 µM (inactive)	> 100 µM (inactive)	> 100 µM (inactive)	> 100 µM (inactive)	> 100 µM (inactive)	–	> 100 µM (inactive)	–	> 100 µM (inactive)	> 100 µM (inactive)	> 100 µM (inactive)	> 100 µM (inactive)	> 100 µM (inactive)
C[C@]12CCC3c4ccc(O)cc4CC[C@H]3C1CC(=O)N(N)C2=O (some centres undefined)	–	> 100 µM (inactive)	> 100 µM (inactive)	> 100 µM (inactive)	> 100 µM (inactive)	> 100 µM (inactive)	> 100 µM (inactive)	> 100 µM (inactive)	> 100 µM (inactive)	> 100 µM (inactive)	64.7 µM (inactive)	> 100 µM (inactive)	> 100 µM (inactive)	–	> 100 µM (inactive)	> 100 µM (inactive)	> 100 µM (inactive)	> 100 µM (inactive)	> 100 µM (inactive)	> 100 µM (inactive)
COCc1cc2c(s1)C(=O)C1=C(C2=O)C2(C=C(Br)C(=O)C(Br)=C2)CCN1	3.52 µM (inactive)	6.05 µM (inactive)	1.71 µM (inactive)	11.1 µM (inactive)	12.7 µM (inactive)	3.58 µM (inactive)	2.36 µM (inactive)	1.55 µM (inactive)	1.58 µM (inactive)	7.24 µM (inactive)	11.7 µM (inactive)	4.15 µM (inactive)	16 µM (inactive)	2.19 µM (inactive)	2.4 µM (inactive)	3.02 µM (inactive)	1.73 µM (inactive)	20 µM (inactive)	–	–
O=C1c2ccccc2C(=O)c2sc(Nc3cccc(Cl)c3)nc21	–	1.62 µM (inactive)	1.56 µM (inactive)	2.75 µM (inactive)	3.96 µM (inactive)	2.07 µM (inactive)	0.172 µM (active)	1.52 µM (inactive)	–	2.07 µM (inactive)	2.38 µM (inactive)	1.6 µM (inactive)	–	1.27 µM (inactive)	1.45 µM (inactive)	5.38 µM (inactive)	–	2.04 µM (inactive)	–	1.82 µM (inactive)
CCOc1ccc(/N=C\c2ccc3cc(C)ccc3n2)cc1	–	68.5 µM (inactive)	57.8 µM (inactive)	33.2 µM (inactive)	> 100 µM (inactive)	69.3 µM (inactive)	19.5 µM (inactive)	76 µM (inactive)	–	77.6 µM (inactive)	55.6 µM (inactive)	50.2 µM (inactive)	–	30.6 µM (inactive)	91 µM (inactive)	> 100 µM (inactive)	–	36.9 µM (inactive)	–	> 100 µM (inactive)
COc1ccc(OC)c(CNc2ccc(O)c(C(=O)NCCc3ccc(F)cc3)c2)c1	10.1 µM (inactive)	13.7 µM (inactive)	7.19 µM (inactive)	3.58 µM (inactive)	–	13.2 µM (inactive)	–	13.5 µM (inactive)	2.74 µM (inactive)	5.68 µM (inactive)	19.7 µM (inactive)	16.2 µM (inactive)	12.8 µM (inactive)	11.1 µM (inactive)	–	18.6 µM (inactive)	4.06 µM (inactive)	21.5 µM (inactive)	17.1 µM (inactive)	4.08 µM (inactive)
CC(=O)C(CN(C)Cc1ccccc1)C(c1ccccc1)c1c(O)c2ccccc2oc1=O (centres undefined)	–	> 100 µM (inactive)	> 100 µM (inactive)	> 100 µM (inactive)	10.4 µM (inactive)	> 100 µM (inactive)	52.5 µM (inactive)	> 100 µM (inactive)	–	> 100 µM (inactive)	> 100 µM (inactive)	> 100 µM (inactive)	–	> 100 µM (inactive)	> 100 µM (inactive)	> 100 µM (inactive)	–	> 100 µM (inactive)	–	> 100 µM (inactive)
N=C(N)C1CN(CCCCCCCCCCN2CC(C(=N)N)C(O)=NC2=O)C(=O)N=C1O (centres undefined)	> 10 µM (inactive)	> 10 µM (inactive)	> 10 µM (inactive)	> 10 µM (inactive)	> 10 µM (inactive)	> 10 µM (inactive)	> 10 µM (inactive)	> 10 µM (inactive)	> 10 µM (inactive)	> 10 µM (inactive)	> 10 µM (inactive)	> 10 µM (inactive)	–	> 10 µM (inactive)	> 10 µM (inactive)	> 10 µM (inactive)	> 10 µM (inactive)	> 10 µM (inactive)	> 10 µM (inactive)	> 10 µM (inactive)
CCN(CC)[C@@H]1c2cc3c(cc2C(c2cc(OC)c(O)c(OC)c2)C2C(=O)CO[C@@H]21)OCO3 (some centres undefined)	–	> 100 µM (inactive)	> 100 µM (inactive)	> 100 µM (inactive)	> 100 µM (inactive)	> 100 µM (inactive)	> 100 µM (inactive)	> 100 µM (inactive)	–	> 100 µM (inactive)	> 100 µM (inactive)	> 100 µM (inactive)	–	> 100 µM (inactive)	65.5 µM (inactive)	> 100 µM (inactive)	–	> 100 µM (inactive)	–	> 100 µM (inactive)
